By IC50 is commonly meant the concentration that inhibits the measured activity by half. Read a low IC50 as inhibition by little substance. In general, inhibition in vivo refers to the relative decrease from the control value, in per cent. For orientation: bioavailability means dose-corrected exposure relative to a reference, in per cent. By half-life is commonly meant the time in which the quantity being followed falls by half. Usually AUC(0-t) stands for exposure summed from dosing to a finite time, without extrapolation to infinity.

One series concerns the target Dipeptidyl peptidase 9 (Homo sapiens, UniProt Q86TI2).
Another series has as its target Dipeptidyl peptidase 8 (Homo sapiens, UniProt Q6V1X1). Kind of series: Inhibition of DPP-8 (unknown origin).
A further series addresses Cytochrome P450 3A4 (Homo sapiens, UniProt P08684). Put plainly: Inhibition of CYP3A (unknown origin). The format is ADME.
The subject of series [1] is Mus musculus. Kind of series: In vivo inhibition of DPP-4 in ICR mouse assessed as cleavage rate of Gly-Pro-AMC in plasma at 3 mg/kg, po measured at 7 hrs by fluorescence assay relative to control. The format is functional.
For series [2], the system named is Mus musculus. Put plainly: In vivo inhibition of DPP-4 in ICR mouse assessed as cleavage rate of Gly-Pro-AMC in plasma at 1 mg/kg, po measured at 7 hrs by fluorescence assay relative to control. The format is functional.
Series [3] relates to Mus musculus. Kind of series: In vivo inhibition of DPP-4 in ICR mouse assessed as cleavage rate of Gly-Pro-AMC in plasma at 1 mg/kg, po measured at 24 hrs by fluorescence assay relative to control. The format is functional.
The nature of series [4]: Oral bioavailability in Sprague-Dawley rat at 25 mg/kg. Particulars: in vivo. Type of series: ADME, organism-based.
Series [5] in a line: Half life in Sprague-Dawley rat at 25 mg/kg, po. Type of series: ADME, organism-based. Also noted: dose 25 mg/kg, route oral. The settings on record: in vivo.
The nature of series [6]: AUC (0 to t) in Sprague-Dawley rat at 25 mg/kg, po. Type of series: ADME, organism-based. Details: dose 25 mg/kg, route oral. Particulars: plasma.
The test system of series [7] is Mus musculus. Put plainly: In vivo inhibition of DPP-4 in ICR mouse assessed as cleavage rate of Gly-Pro-AMC in plasma at 3 mg/kg, po measured at 4.5 hrs by fluorescence assay relative to control. The format is functional.
The subject of series [8] is Mus musculus. Kind of series: In vivo inhibition of DPP-4 in ICR mouse assessed as cleavage rate of Gly-Pro-AMC in plasma at 1 mg/kg, po measured at 4.5 hrs by fluorescence assay relative to control. The format is functional.
Series [9] has as its system Mus musculus. Kind of series: In vivo inhibition of DPP-4 in ICR mouse assessed as cleavage rate of Gly-Pro-AMC in plasma at 3 mg/kg, po measured at 24 hrs by fluorescence assay relative to control. Type of series: functional.
Series [10] deals with Voltage-gated inwardly rectifying potassium channel KCNH2 (Homo sapiens, UniProt Q12809). Kind of series: Inhibition of human ERG.
The subject of series [11] is Mus musculus. Kind of series: In vivo inhibition of DPP-4 in ICR mouse assessed as cleavage rate of Gly-Pro-AMC in plasma at 3 mg/kg, po measured at 0.5 hrs by fluorescence assay relative to control. The format is functional.
Series [12] concerns Mus musculus. Put plainly: In vivo inhibition of DPP-4 in ICR mouse assessed as cleavage rate of Gly-Pro-AMC in plasma at 1 mg/kg, po measured at 0.5 hrs by fluorescence assay relative to control. Type of series: functional.
A short description of series [13]: Half life in Sprague-Dawley rat at 5 mg/kg, iv. The format is ADME, organism-based. Details: dose 5 mg/kg, route intravenous. The settings on record: in vivo.
Series [14] can be described thus: Apparent volume of distribution during terminal phase in Sprague-Dawley rat at 5 mg/kg, iv and 25 mg/kg, po. Particulars: in vivo, read-out: Vz/F. Type of series: ADME, organism-based.
The nature of series [15]: Plasma clearance in Sprague-Dawley rat at 5 mg/kg, iv and 25 mg/kg, po. Type of series: ADME, organism-based.

Dipeptidyl peptidase 8, sequence (Q6V1X1 whole entry): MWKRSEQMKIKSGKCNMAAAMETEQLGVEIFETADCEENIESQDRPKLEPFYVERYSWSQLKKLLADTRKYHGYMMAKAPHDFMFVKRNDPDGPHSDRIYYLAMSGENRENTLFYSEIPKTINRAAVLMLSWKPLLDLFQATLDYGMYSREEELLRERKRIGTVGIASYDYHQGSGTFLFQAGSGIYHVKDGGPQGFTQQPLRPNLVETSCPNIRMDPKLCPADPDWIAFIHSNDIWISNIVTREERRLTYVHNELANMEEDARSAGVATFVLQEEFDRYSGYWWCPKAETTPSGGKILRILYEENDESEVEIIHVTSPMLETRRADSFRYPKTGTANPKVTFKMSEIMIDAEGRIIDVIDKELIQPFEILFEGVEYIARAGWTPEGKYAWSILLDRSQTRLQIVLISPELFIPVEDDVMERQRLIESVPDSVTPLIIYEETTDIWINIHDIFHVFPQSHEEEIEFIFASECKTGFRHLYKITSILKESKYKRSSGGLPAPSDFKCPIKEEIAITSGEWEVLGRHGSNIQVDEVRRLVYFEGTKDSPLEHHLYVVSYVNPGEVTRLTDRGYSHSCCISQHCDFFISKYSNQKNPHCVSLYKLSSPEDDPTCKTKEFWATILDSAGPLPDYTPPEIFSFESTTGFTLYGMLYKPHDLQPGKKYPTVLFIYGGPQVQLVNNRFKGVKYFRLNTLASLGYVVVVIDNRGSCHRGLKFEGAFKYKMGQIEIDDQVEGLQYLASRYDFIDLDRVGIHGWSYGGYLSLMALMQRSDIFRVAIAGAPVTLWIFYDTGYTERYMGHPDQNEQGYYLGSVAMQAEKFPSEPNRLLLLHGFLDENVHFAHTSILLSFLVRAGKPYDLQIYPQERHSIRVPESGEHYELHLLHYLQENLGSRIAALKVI
Dipeptidyl peptidase 9, sequence (Q86TI2 whole entry): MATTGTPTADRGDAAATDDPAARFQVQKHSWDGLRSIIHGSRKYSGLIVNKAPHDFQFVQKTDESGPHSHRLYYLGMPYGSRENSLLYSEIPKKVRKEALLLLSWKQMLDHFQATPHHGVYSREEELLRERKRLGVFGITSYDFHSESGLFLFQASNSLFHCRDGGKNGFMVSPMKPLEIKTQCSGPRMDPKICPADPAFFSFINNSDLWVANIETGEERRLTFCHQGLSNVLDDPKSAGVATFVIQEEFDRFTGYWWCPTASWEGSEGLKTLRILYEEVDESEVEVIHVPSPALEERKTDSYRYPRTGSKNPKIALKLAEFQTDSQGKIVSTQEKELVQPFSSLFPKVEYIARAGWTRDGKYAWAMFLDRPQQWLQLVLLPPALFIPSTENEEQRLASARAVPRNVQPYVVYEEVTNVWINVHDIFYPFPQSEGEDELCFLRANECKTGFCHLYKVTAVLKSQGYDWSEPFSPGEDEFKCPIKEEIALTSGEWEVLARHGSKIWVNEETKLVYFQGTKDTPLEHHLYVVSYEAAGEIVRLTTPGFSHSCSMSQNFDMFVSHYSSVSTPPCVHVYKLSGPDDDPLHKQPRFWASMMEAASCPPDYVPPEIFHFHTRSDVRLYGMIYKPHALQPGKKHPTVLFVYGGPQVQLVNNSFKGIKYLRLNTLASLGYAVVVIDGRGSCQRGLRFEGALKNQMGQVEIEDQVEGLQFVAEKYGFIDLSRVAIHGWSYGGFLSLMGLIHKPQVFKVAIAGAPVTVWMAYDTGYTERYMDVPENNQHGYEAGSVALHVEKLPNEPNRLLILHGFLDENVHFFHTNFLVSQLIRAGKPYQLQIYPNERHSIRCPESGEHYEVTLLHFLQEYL
Cytochrome P450 3A4, sequence (P08684 whole entry): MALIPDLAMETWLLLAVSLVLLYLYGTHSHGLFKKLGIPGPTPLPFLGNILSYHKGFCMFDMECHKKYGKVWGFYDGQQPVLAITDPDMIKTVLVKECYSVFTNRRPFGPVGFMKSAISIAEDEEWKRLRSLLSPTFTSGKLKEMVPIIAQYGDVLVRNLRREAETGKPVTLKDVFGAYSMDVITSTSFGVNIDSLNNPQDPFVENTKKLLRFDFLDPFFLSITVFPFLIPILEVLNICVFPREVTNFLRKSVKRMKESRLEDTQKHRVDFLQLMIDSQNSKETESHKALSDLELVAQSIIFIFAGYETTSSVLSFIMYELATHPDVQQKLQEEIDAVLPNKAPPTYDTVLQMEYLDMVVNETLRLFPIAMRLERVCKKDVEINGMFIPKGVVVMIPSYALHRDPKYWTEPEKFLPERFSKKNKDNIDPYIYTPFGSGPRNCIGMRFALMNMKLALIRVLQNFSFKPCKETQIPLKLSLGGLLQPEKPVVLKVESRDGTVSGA
Voltage-gated inwardly rectifying potassium channel KCNH2, sequence (Q12809 whole entry): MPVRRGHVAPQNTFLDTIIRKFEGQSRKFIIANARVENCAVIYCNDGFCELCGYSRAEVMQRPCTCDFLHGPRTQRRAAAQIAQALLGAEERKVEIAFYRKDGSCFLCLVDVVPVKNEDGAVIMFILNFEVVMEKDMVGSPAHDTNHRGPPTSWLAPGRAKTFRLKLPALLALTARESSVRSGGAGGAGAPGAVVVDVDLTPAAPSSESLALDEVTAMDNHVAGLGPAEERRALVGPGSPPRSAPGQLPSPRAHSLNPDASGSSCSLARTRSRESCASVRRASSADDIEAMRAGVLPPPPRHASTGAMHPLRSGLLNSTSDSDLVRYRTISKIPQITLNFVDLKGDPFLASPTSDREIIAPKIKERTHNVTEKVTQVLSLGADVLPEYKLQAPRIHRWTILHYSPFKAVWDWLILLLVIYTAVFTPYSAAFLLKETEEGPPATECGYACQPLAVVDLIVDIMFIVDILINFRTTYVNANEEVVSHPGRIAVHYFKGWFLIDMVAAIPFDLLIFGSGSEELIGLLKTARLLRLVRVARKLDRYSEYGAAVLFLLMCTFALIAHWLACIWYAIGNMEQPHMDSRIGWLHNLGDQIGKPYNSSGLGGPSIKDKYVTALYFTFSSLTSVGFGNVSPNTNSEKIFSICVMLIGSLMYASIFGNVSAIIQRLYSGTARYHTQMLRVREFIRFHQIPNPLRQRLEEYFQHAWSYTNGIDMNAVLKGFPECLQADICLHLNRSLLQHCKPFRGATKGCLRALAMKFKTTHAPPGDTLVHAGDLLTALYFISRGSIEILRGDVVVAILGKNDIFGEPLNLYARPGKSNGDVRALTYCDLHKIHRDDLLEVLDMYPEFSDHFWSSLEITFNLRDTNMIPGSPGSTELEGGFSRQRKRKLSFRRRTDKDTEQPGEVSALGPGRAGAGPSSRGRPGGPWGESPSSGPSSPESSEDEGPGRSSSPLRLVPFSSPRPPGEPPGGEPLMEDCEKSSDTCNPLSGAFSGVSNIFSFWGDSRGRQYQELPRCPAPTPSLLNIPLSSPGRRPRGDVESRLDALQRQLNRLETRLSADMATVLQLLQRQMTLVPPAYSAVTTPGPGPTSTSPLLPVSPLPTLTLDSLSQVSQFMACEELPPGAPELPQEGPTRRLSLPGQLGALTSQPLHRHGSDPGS
Description for Dipeptidyl peptidase 9: Inhibition of DPP-9 (unknown origin)

Regarding `CC#CCn1c(N2CCC[C@@H](N)C2)cc(=O)n(Cc2ccc3cc(OC)ccc3n2)c1=O`, the IC50 is more than 100 µM at Dipeptidyl peptidase 9, more than 100 µM against Dipeptidyl peptidase 8 and 42.2 µM at Cytochrome P450 3A4.

As to `CC#CCn1c(N2CCC[C@@H](N)C2)cc(=O)n(Cc2ccc3cc(Br)ccc3n2)c1=O`, the IC50 was more than 100 µM against Dipeptidyl peptidase 9, more than 100 µM at Dipeptidyl peptidase 8 and 79.4 µM at Cytochrome P450 3A4.

Regarding `CC#CCn1c(N2CCC[C@@H](N)C2)cc(=O)n(Cc2ccc3ccc(Cl)cc3n2)c1=O`, the inhibition in vivo at 3 mg/kg in the series with Mus musculus [1] amounted to 82.3%; in the series with Mus musculus [7], 84.7%; with Mus musculus [9] it was 13.5%; in the series with Mus musculus [11], 80.4%. For the same compound, the IC50 at Dipeptidyl peptidase 9 is more than 100 µM; on Dipeptidyl peptidase 8, more than 100 µM; at Cytochrome P450 3A4 it was 46.2 µM; in series [10], more than 100 µM. For the same compound, the inhibition in vivo at 1 mg/kg was found to be 71.6% with Mus musculus [2], 11.5% in the series with Mus musculus [3], 76% with Mus musculus [8] and 51.8% in the series with Mus musculus [12]. Further, the bioavailability in [4] came to 73%. For the same compound, the half-life in series [5] is 5.02 h; in series [13], 5.65 h. The same compound had an AUC(0-t) in [6] of 17600 ng·h/mL. The Vd/F in series [14] is 8.65 L/kg. The clearance in [15] is 17.5 mL/min/kg.

`CC#CCn1c(N2CCC[C@@H](N)C2)cc(=O)n(Cc2ccc3cc(Cl)ccc3n2)c1=O`: the IC50 was more than 100 µM on Dipeptidyl peptidase 9, more than 100 µM at Dipeptidyl peptidase 8 and 91.9 µM on Cytochrome P450 3A4.

In the case of `CC#CCn1c(N2CCC[C@@H](N)C2)cc(=O)n(Cc2nc3ccccc3[nH]2)c1=O`, the IC50 against Dipeptidyl peptidase 9 and on Dipeptidyl peptidase 8 was more than 100 µM in each case.

In the case of `CC#CCn1c(N2CCC[C@@H](N)C2)cc(=O)n(Cc2ccc3cc(F)ccc3n2)c1=O`, the figures for the IC50 against Dipeptidyl peptidase 9, against Dipeptidyl peptidase 8 and at Cytochrome P450 3A4 were more than 100 µM, more than 100 µM and 58.3 µM, respectively.

On to `CC#CCn1c(N2CCC[C@@H](N)C2)cc(=O)n(Cc2ccccc2)c1=O`, for which the IC50 at Dipeptidyl peptidase 9 and on Dipeptidyl peptidase 8 was more than 100 µM throughout.

In the case of `CC#CCn1c(N2CCC[C@@H](N)C2)cc(=O)n(Cc2ccc3c(ccc4ccccc43)n2)c1=O`, the IC50 against Dipeptidyl peptidase 9 and against Dipeptidyl peptidase 8 was more than 100 µM throughout.

Turning to `CC#CCn1c(N2CCC[C@@H](N)C2)cc(=O)n(Cc2ncccn2)c1=O`, the IC50 against Dipeptidyl peptidase 9 and on Dipeptidyl peptidase 8 was more than 100 µM in each case.

For the compound `CC#CCn1c(N2CCC[C@@H](N)C2)cc(=O)n(Cc2ccc3ccc(F)cc3n2)c1=O`, the figures for the IC50 against Dipeptidyl peptidase 9, against Dipeptidyl peptidase 8 and against Cytochrome P450 3A4 were more than 100 µM, more than 100 µM and 54.7 µM, respectively.

For the compound `CC#CCn1c(N2CCC[C@@H](N)C2)cc(=O)n(Cc2ccc3ccccc3n2)c1=O`, the IC50 against Dipeptidyl peptidase 9 is more than 100 µM; at Dipeptidyl peptidase 8, more than 100 µM; against Cytochrome P450 3A4, 97.9 µM. The compound also returned a bioavailability in series [4] of 63%. Moreover, in series [5], the half-life was 4.2 h.

As for `CC#CCn1c(N2CCC[C@@H](N)C2)cc(=O)n(Cc2cc(Cl)c3ccccc3n2)c1=O`, the IC50 is more than 100 µM against Dipeptidyl peptidase 8 and 14.1 µM against Cytochrome P450 3A4.

Turning to `Cn1c(=O)cc(N2CCC[C@@H](N)C2)n(Cc2ccccc2C#N)c1=O` [ALOGLIPTIN], the inhibition in vivo at 3 mg/kg in the series with Mus musculus [1] came out at 50.9%; in the series on Mus musculus [7], 71.5%; in the series with Mus musculus [9], 0.8%; with Mus musculus [11], 83.8%. In addition, the inhibition in vivo at 1 mg/kg with Mus musculus [2] was found to be 27.6%; in the series with Mus musculus [3], 0.5%; with Mus musculus [8], 49.4%; in the series on Mus musculus [12], 72.6%. Besides, the half-life in [5] was 2 h.

For the compound `CC#CCn1c(N2CCC[C@@H](N)C2)cc(=O)n(Cc2ccc3cc(C)ccc3n2)c1=O`, the IC50 against Dipeptidyl peptidase 9 was more than 100 µM; against Dipeptidyl peptidase 8, more than 100 µM; against Cytochrome P450 3A4, 46.2 µM.

For `CC#CCn1c(N2CCC[C@@H](N)C2)cc(=O)n(CC#CC)c1=O`, the IC50 against Dipeptidyl peptidase 9 and against Dipeptidyl peptidase 8 was more than 100 µM throughout.

For the origin of these results see ChEMBL document CHEMBL2424575 (Eur J Med Chem, 2013).
